US5314932A, “Antifouling coating and method for using same” (priority 1993, dated 1994)

What was measured:
cyprid stage larvae = assay type: in vivo, acorn barnacle Balanus amphritrite Darwin; details: for EC50 compared with TBT, digoxigenin, and digoxin: cyprid stage larvae settlement, comparison in words; for Cyprid Settlement (ED50): dose which prevents settlement of 50 percent of cyprid stage larvae (EC50), three-day old cyprids, 100 kDa-filtered seawater (approx. 35 ppt), 28° C., approx. 15 h light and 9 h darkness
Description: (§1) Adult individuals of the acorn barnacle Balanus amphritrite Darwin were collected from the Duke University Marine Laboratory seawall in Beaufort, N.C. Collected specimens were crushed, and the nauplius stage larvae released therefrom were cultured to cyprid stage for cyprid-state assays according to the methods of Rittschof et al., J. Exp. Mar. Biol. Ecol. 82:131-146 (1984).
Settlement assays were performed as previously described by Rittschof et al., J. Chem. Ecol. 11:551-563 (1985). Three-day old cyprid larvae were added to Falcon 50×9 mm polystyrene petri dishes. Each dish contained 5 ml of 100 kDa-filtered seawater (approximately 35 ppt salinity). […] Doses were varied in an effort to determine inhibition levels. Dishes receiving no test compound served as negative controls. The number of replicate dishes used in each assay ranged from 2 to 4, depending on larval availability. The dishes were incubated at 28° C. under light for approximately 15 hours and in darkness for approximately 9 hours.
After incubation, the dishes were examined under a dissecting microscope to determine whether larvae were still alive. The larvae were then euthanized by the addition of several drops of 10 percent formalin. The numbers of attached and unattached larvae were then counted.
Settlement was calculated as the percentage of total larvae attached to the dish. Differences in the rate of settlement for test dishes versus controls were assessed for statistical significance through the use of a G test for independence described by Sokal et al., Biometry (Freeman & Co., San Francisco 1981).

nauplius stage larvae = experiment: Toxicity Assay for Nauplius Larvae (naupliar toxicity); details: for Naupliar Toxicity (LD50): lethal dose killing 50 percent of naupliar stage larvae, 100 kDa-filtered seawater, 28° C., approx. 15 h light and 9 h darkness, 1440 min; for LD50 compared with TBT, digoxigenin, and digoxin: nauplius stage larvae, comparison with known antifouling agents
Description: as §1
Toxicity assays were conducted by adding nauplius stage larvae to Falcon 50×9 mm polystyrene Petri dishes containing 5 ml of 100 kDa-filteredseawater. Experimental dishes received a dose of bufalin, cinobufatalin, TBT, digoxigenin, or digoxin. Doses receiving no test compound served as negative controls. The dishes were incubated at 28° C. under light for approximately 15 hours and in darkness for approximately 9 hours.
After incubation, the dishes were examined under a dissecting microscope to determine whether the larvae were alive or dead. […] The number of dead and living larvae was counted and recorded.
Data for toxicity assays performed on nauplius stage larvae is summarized in Table 1, which lists the lethal dose for each compound required to kill 50 percent of naupliar stage larvae in a sample (LD50).

Compound | EC50 compared with TBT, digoxigenin, and digoxin (cyprid stage larvae) | Cyprid Settlement (ED50) (cyprid stage larvae) | Naupliar Toxicity (LD50) (nauplius stage larvae) | LD50 compared with TBT, digoxigenin, and digoxin (nauplius stage larvae)
C[C@]12CC[C@H](O)C[C@H]1CC[C@@H]1[C@@H]2CC[C@]2(C)[C@@H](c3ccc(=O)oc3)CC[C@]12O [Bufalin, 3,14-dihydroxybufa-20,22 dienolide] | much lower EC50 values than TBT, digoxigenin, and digoxin | 19 ng/L | 27 ng/L | much lower LD50 values than known antifouling agents TBT, digoxigenin, and digoxin
CC(=O)O[C@H]1[C@H]2O[C@]23[C@@H]2CC[C@@H]4C[C@@H](O)CC[C@]4(C)[C@H]2CC[C@]3(C)[C@H]1c1ccc(=O)oc1 [Cinobufagin, 16-(acetyloxy)-14,15-epoxy-3 hydroxybufa-20,22-enolide] | much lower EC50 values than TBT, digoxigenin, and digoxin | 162 ng/L | 37 ng/L | much lower LD50 values than known antifouling agents TBT, digoxigenin, and digoxin
CC(=O)O[C@H]1[C@H]2O[C@]23[C@@H]2CC[C@]4(O)C[C@@H](O)CC[C@]4(C)[C@H]2CC[C@]3(C)[C@H]1c1ccc(=O)oc1 [Cinobufotalin, 16-(acetyloxy)-14,15-epoxy-3,5dihydroxybufa-20,22-enolide] | much lower EC50 values than TBT, digoxigenin, and digoxin | 2,600 ng/L | 837 ng/L | much lower LD50 values than known antifouling agents TBT, digoxigenin, and digoxin
C[C@]12CC[C@H](O)C[C@H]1CC[C@@H]1[C@@H]2C[C@@H](O)[C@]2(C)[C@@H](C3=CC(=O)OC3)CC[C@]12O [Digoxigenin, reference compound] | – | > 50,000 ng/L | 3,720 ng/L | –
C[C@H]1O[C@@H](O[C@H]2[C@@H](O)C[C@H](O[C@H]3[C@@H](O)C[C@H](O[C@H]4CC[C@@]5(C)[C@H](CC[C@@H]6[C@@H]5C[C@@H](O)[C@]5(C)[C@@H](C7=CC(=O)OC7)CC[C@]65O)C4)O[C@@H]3C)O[C@@H]2C)C[C@H](O)[C@@H]1O [Digoxin, reference compound] | – | 6,300 ng/L | 5,450 ng/L | –
CCC[CH2][Sn]([Cl])([CH2]CCC)[CH2]CCC [TBT Chloride, tri-n-butyl tin chloride, reference compound] | – | – | ~3,400 ng/L | –
